Tests used:
[1] = test system: CD46 expression; experiment: CD46 expression by RNA-sequencing in unpaired pre-treatment and post-treatment tumor biopsies; assay type: in vivo, human; conditions: for CD46 expression Post: post-treatment biopsies
[2] = test system: CD46 expression; experiment: CD46 expression by RNA-sequencing in paired tumor biopsies before and after therapy; conditions: paired biopsies; for CD46 expression, Post-Treatment Biopsy / CD46 expression, Pre-Treatment Biopsy: RNA-seq log2-transformed counts;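 for all read-outs here: FFPE human tumor biopsies, exome-capture RNA-seq, reads aligned to GRCh37, counts normalized for GC content, length and depth, summed per gene, log2-transformed, samples paired before versus after therapy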
[3] = Biliary Cancer, Post minus Pre, unpaired biopsies, log2-transformed counts
[4] = Biliary Cancer, post- vs pre-treatment unpaired biopsies
[5] = Biliary Cancer, unpaired, RNA-seq log2-transformed normalized counts
[6] = Breast Cancer, Post minus Pre, unpaired biopsies, log2-transformed counts
[7] = Breast Cancer, post- vs pre-treatment unpaired biopsies
[8] = Breast Cancer, unpaired, RNA-seq log2-transformed normalized counts
[9] = Non-Small Cell Lung Cancer, Post minus Pre, unpaired biopsies, log2-transformed counts
[10] = Non-Small Cell Lung Cancer, post- vs pre-treatment unpaired biopsies
[11] = Non-Small Cell Lung Cancer, unpaired, RNA-seq log2-transformed normalized counts
[12] = Colorectal Cancer, Post minus Pre, unpaired biopsies, log2-transformed counts
[13] = Colorectal Cancer, post- vs pre-treatment unpaired biopsies
[14] = Colorectal Cancer, unpaired, RNA-seq log2-transformed normalized counts
[15] = Pancreatic Cancer, post minus pre, unpaired biopsies
[16] = Pancreatic Cancer, post vs pre, unpaired biopsies
[17] = Pancreatic Cancer, log2-transformed RNA-seq counts

N.N.[Cl][Pt][Cl] [cisplatin]
CD46 expression diff [1, 3]: −0.06
CD46 expression Percentage change [1, 4]: −1.0%
CD46 expression Post [1, 5]: 5.76
CD46 expression diff ([1]; Bladder Cancer, post minus pre, unpaired biopsies): −0.19
CD46 expression Percentage change ([1]; Bladder Cancer, post vs pre, unpaired biopsies): −3.1%
CD46 expression Post ([1]; Bladder Cancer, log2-transformed RNA-seq counts): 6.00
CD46 expression Pre ([1]; Bladder Cancer, pre-treatment biopsies, log2-transformed RNA-seq counts): 6.19
CD46 expression diff [1, 6]: 0.02
CD46 expression Percentage change [1, 7]: 0.3%
CD46 expression Post [1, 8]: 5.98
CD46 expression diff ([1]; Endometrial Cancer, Post minus Pre, unpaired biopsies, log2-transformed counts): 0.26
CD46 expression Percentage change ([1]; Endometrial Cancer, post- vs pre-treatment unpaired biopsies): 4.6%
CD46 expression Post ([1]; Endometrial Cancer, unpaired, RNA-seq log2-transformed normalized counts): 5.99
CD46 expression diff ([1]; Head and Neck Squamous Cell Carcinoma, Post minus Pre, unpaired biopsies, log2-transformed counts): 0.13
CD46 expression Percentage change ([1]; Head and Neck Squamous Cell Carcinoma, post- vs pre-treatment unpaired biopsies): 2.4%
CD46 expression Post ([1]; Head and Neck Squamous Cell Carcinoma, unpaired, RNA-seq log2-transformed normalized counts): 5.69
CD46 expression diff [1, 9]: −0.05
CD46 expression Percentage change [1, 10]: −0.8%
CD46 expression Post [1, 11]: 6.11
CD46 expression diff ([1]; Ovarian Cancer, Post minus Pre, unpaired biopsies, log2-transformed counts): 0.03
CD46 expression Percentage change ([1]; Ovarian Cancer, post- vs pre-treatment unpaired biopsies): 0.6%
CD46 expression Post ([1]; Ovarian Cancer, unpaired, RNA-seq log2-transformed normalized counts): 5.79
CD46 expression diff ([1]; Pancreatic Cancer, Post minus Pre, unpaired biopsies, log2-transformed counts): 0.18
CD46 expression Percentage change ([1]; Pancreatic Cancer, post- vs pre-treatment unpaired biopsies): 3.1%
CD46 expression Post ([1]; Pancreatic Cancer, unpaired, RNA-seq log2-transformed normalized counts): 6.16
CD46 expression diff ([1]; Sarcoma, Post minus Pre, unpaired biopsies, log2-transformed counts): 0.19
CD46 expression Percentage change ([1]; Sarcoma, post- vs pre-treatment unpaired biopsies): 3.9%
CD46 expression Post ([1]; Sarcoma, unpaired, RNA-seq log2-transformed normalized counts): 5.02
CD46 expression after treatment vs pre-treatment ([1]; head and neck squamous cell carcinoma, unpaired biopsies, FIG. 7): significantly higher
CD46 expression diff (post minus pre) ([2]; Biliary Cancer): 0.15
Percent Change in CD46 expression ([2]; Biliary Cancer): 2.6%
CD46 expression, Post-Treatment Biopsy ([2]; Biliary Cancer): 5.97
CD46 expression, Pre-Treatment Biopsy ([2]; Biliary Cancer): 5.82
CD46 expression diff (post minus pre) ([2]; Bladder Cancer): 0.10
Percent Change in CD46 expression ([2]; Bladder Cancer): 1.6%
CD46 expression, Pre-Treatment Biopsy ([2]; Bladder Cancer): 6.15
CD46 expression diff (post minus pre) ([2]; Non-Small Cell Lung Cancer): −0.45
Percent Change in CD46 expression ([2]; Non-Small Cell Lung Cancer): −7.2%
CD46 expression, Post-Treatment Biopsy ([2]; Non-Small Cell Lung Cancer): 5.85

Nc1nc2c(c(=O)[nH]1)N(C=O)C(CNc1ccc(C(=O)N[C@@H](CCC(=O)O)C(=O)O)cc1)CN2 (some centres unmarked) [leucovorin]
CD46 expression diff [1, 3]: 0.00
CD46 expression Percentage change [1, 4]: 0.1%
CD46 expression Post [1, 5]: 5.92
CD46 expression diff [1, 12]: 0.08
CD46 expression Percentage change [1, 13]: 1.2%
CD46 expression Post [1, 14]: 6.46
CD46 expression diff ([1]; Esophageal Cancer, Post minus Pre, unpaired biopsies, log2-transformed counts): −0.05
CD46 expression Percentage change ([1]; Esophageal Cancer, post- vs pre-treatment unpaired biopsies): −0.9%
CD46 expression Post ([1]; Esophageal Cancer, unpaired, RNA-seq log2-transformed normalized counts): 5.84
CD46 expression diff ([1]; Gastric Cancer, Post minus Pre, unpaired biopsies, log2-transformed counts): −0.11
CD46 expression Percentage change ([1]; Gastric Cancer, post- vs pre-treatment unpaired biopsies): −1.8%
CD46 expression Post ([1]; Gastric Cancer, unpaired, RNA-seq log2-transformed normalized counts): 5.68
CD46 expression diff [1, 15]: −0.15
CD46 expression Percentage change [1, 16]: −2.5%
CD46 expression Post [1, 17]: 5.76
CD46 expression diff (post minus pre) ([2]; Colorectal Cancer): −0.07
Percent Change in CD46 expression ([2]; Colorectal Cancer): −1.0%
CD46 expression, Post-Treatment Biopsy ([2]; Colorectal Cancer): 6.30
CD46 expression diff (post minus pre) ([2]; Esophageal Cancer): −0.14
Percent Change in CD46 expression ([2]; Esophageal Cancer): −2.3%
CD46 expression, Post-Treatment Biopsy ([2]; Esophageal Cancer): 5.74
CD46 expression diff (post minus pre) ([2]; Pancreatic Cancer): 0.09
Percent Change in CD46 expression ([2]; Pancreatic Cancer): 1.5%
CD46 expression, Post-Treatment Biopsy ([2]; Pancreatic Cancer): 5.92

C[C@@H]1C[C@H]2[C@@H]3CCC4=CC(=O)C=C[C@]4(C)[C@@]3(F)[C@@H](O)C[C@]2(C)[C@@]1(O)C(=O)CO [dexamethasone]
CD46 expression diff [1, 6]: −0.07
CD46 expression Percentage change [1, 7]: −1.1%
CD46 expression Post [1, 8]: 6.20
CD46 expression diff [1, 12]: 0.06
CD46 expression Percentage change [1, 13]: 1.0%
CD46 expression Post [1, 14]: 6.44
CD46 expression diff [1, 9]: 0.00
CD46 expression Percentage change [1, 10]: 0.0%
CD46 expression Post [1, 11]: 6.14
CD46 expression diff ([1]; Ovarian Cancer, post minus pre, unpaired biopsies): −0.22
CD46 expression Percentage change ([1]; Ovarian Cancer, post vs pre, unpaired biopsies): −3.9%
CD46 expression Post ([1]; Ovarian Cancer, log2-transformed RNA-seq counts): 5.48
CD46 expression diff [1, 15]: −0.27
CD46 expression Percentage change [1, 16]: −4.5%
CD46 expression Post [1, 17]: 5.75
CD46 expression diff (post minus pre) ([2]; Colorectal Cancer): −0.19
Percent Change in CD46 expression ([2]; Colorectal Cancer): −3.0%
CD46 expression, Post-Treatment Biopsy ([2]; Colorectal Cancer): 5.96

C[C@]12C=CC(=O)C=C1CC[C@@H]1[C@@H]2C(=O)C[C@@]2(C)[C@H]1CC[C@]2(O)C(=O)CO [prednisone]
CD46 expression diff [1, 9]: 0.02
CD46 expression Percentage change [1, 10]: 0.3%
CD46 expression diff ([1]; Prostate Cancer, Post minus Pre, unpaired biopsies, log2-transformed counts): −0.10
CD46 expression Percentage change ([1]; Prostate Cancer, post- vs pre-treatment unpaired biopsies): −1.7%
CD46 expression Post ([1]; Prostate Cancer, unpaired, RNA-seq log2-transformed normalized counts): 6.08
CD46 expression diff (post minus pre) ([2]; Prostate Cancer): 0.13
Percent Change in CD46 expression ([2]; Prostate Cancer): 2.3%
CD46 expression, Post-Treatment Biopsy ([2]; Prostate Cancer): 5.85

Reference: patent US20240058464A1 (Fortis Therapeutics, Inc., priority 2021, published 2024)
